Assay results: patent US20110052570A1, “METHOD TO PROGNOSE RESPONSE TO ANTI-EGFR THERAPEUTICS” (CHILDREN'S MEDICAL CENTER CORPORATION, priority 2005, published 2011)
“Also recorded” adds a separate entry of the source.

How the values were obtained:
EGFR = target: T1, EGFR (Mus musculus, UniProt Q01279); test: EGFR phosphorylation by immunoprecipitation / western blotting in endothelial cells; assay type: cell-based; conditions: for ligand-induced EGFR phosphorylation / activation: serum starved A375SM tumor EC, ligand 100 ng/ml
T1 construct: endogenous in cells; host or cells: mouse tumour EC isolated from A375SM melanoma, MDA-MB-231 breast carcinoma and liposarcoma xenografts; mouse skin EC as control
Method: Immunoprecipitation (IP) and western blotting (WB). […] Cells were also treated with the EGFR kinase inhibitor, AG1478 (Calbiochem, San Diego, Calif.), prepared in DMSO, fifteen minutes prior to growth factor stimulation. Immunoprecipitation (IP) and western blotting (WB) were performed as previously described (16). […] Receptor phosphorylation was detected using anti-phosphotyrosine antibody (mAb 4G10; Upstate, Lake Placid, N.Y.). […] In addition antibodies to GAPDH (Chemicon, Temecula, Calif.), (β-Actin (Sigma-Aldrich, St Louis, Mo.), phospho-Erk1-2 (New England Biolab, Beverly Mass.), and Erk1 (Santa Cruz Biotechnology) were purchased.

[1] = test system: A375SM tumor EC (melanoma EC); test: MTT cell proliferation assay, tumor EC; assay type: cell-based, mouse
Method: (§1) Cell proliferation. Cells (4×103) were plated in triplicates into 96 well plates and allowed to adhere overnight. The cells were then switched to serum free media containing growth factors and/or AG1478 at indicated concentrations. Cells were cultured for 72 hr and cell proliferation was determined by addition of 0.42 mg/ml of 3-(4,5-dimethylthiazol-2-yl)-2,5-diphenyltetrazolium bromide (MTT) reagent (Sigma-Aldrich) for 4 hr prior to harvesting. Media was removed and cells were solubilized in DMSO and absorbance was measured at 570 nm. The averages of the triplicates were calculated and cell proliferation was determined as the percentage of absorbance of treated cells to the untreated cells. All the experiments were at least performed twice.

[2] = test system: A375SM melanoma xenograft; test: A375SM melanoma xenograft model in nude mice; assay type: in vivo, mouse; conditions: EGFR-negative A375SM xenografts in mice, daily treatment, 4 weeks
Method: A375SM melanoma tumor cells were injected subcutaneously into nude mice. When the tumors reached an average volume of 200 mm^3 the mice were randomized into a control and Iressa treatment groups. The mice were treated daily p.o. with gefitinib (150 mg/kg) or with the vehicle. Tumor volumes were measured every 4 days.

ErbB2 = ErbB2 phosphorylation by immunoprecipitation / western blotting in endothelial cells; assay type: cell-based, mouse
Method: (§2) Immunoprecipitation (IP) and western blotting (WB). […] Cells were also treated with the EGFR kinase inhibitor, AG1478 (Calbiochem, San Diego, Calif.), prepared in DMSO, fifteen minutes prior to growth factor stimulation. Immunoprecipitation (IP) and western blotting (WB) were performed as previously described (16). The antibodies used for IP and WB of ErbB1-4 were: SC-03, SC-284, SC-285, and SC-283 respectively (Santa Cruz Biotechnology, Santa Cruz, Calif.). Receptor phosphorylation was detected using anti-phosphotyrosine antibody (mAb 4G10; Upstate, Lake Placid, N.Y.). Analysis of phosphorylated—EGFR on lysates was performed using phospho-1068 EGFR (Cell Signaling Technologies, Beverly Mass.). In addition antibodies to GAPDH (Chemicon, Temecula, Calif.), (β-Actin (Sigma-Aldrich, St Louis, Mo.), phospho-Erk1-2 (New England Biolab, Beverly Mass.), and Erk1 (Santa Cruz Biotechnology) were purchased.

Erk1/2 = Erk1/2 (MAPK) phosphorylation by western blotting in endothelial cells; assay type: cell-based, mouse
Method: as §2

skin EC = test: MTT cell proliferation assay, skin EC; assay type: cell-based, mouse; conditions: increasing EGF
Method: as §1

[3] = target: ErbB3 on mouse skin endothelial cells (skin EC) (mouse) (UniProt Q61526); test: cell-based or functional assay

COc1cc2ncnc(Nc3cccc(Cl)c3)c2cc1OC [AG1478, 4-(3-Chloroanillino)-6,7-dimethoxyquinazoline, reference compound]
effect on EGF-induced phosphorylation of EGFR (EGFR; skin EC, inhibitor pretreatment, then EGF 100 ng/ml): had no effect on skin EC | inhibition of EGF-induced phosphorylation of EGFR (EGFR; tumor EC (A375SM melanoma EC), inhibitor pretreatment, then EGF 100 ng/ml): inhibited EGF-induced phosphorylation of EGFR in tumor EC in a dose-dependent manner; also recorded: inhibits EGFR activation on melanoma EC | inhibition of EGF-induced increase in tumor EC cell proliferation ([1]; inhibitor at 1 μM, increasing EGF, MTT 72 hr): completely inhibit | inhibition of EGF-induced tumor EC proliferation ([1]; tumor (melanoma) EC, concentration not stated / dose dependent): completely inhibits EGF dependent proliferation

COc1cc2ncnc(Nc3ccc(F)c(Cl)c3)c2cc1OCCCN1CCOCC1 [Iressa, Gefitinib]
effect on tumor growth (in words) [2]: inhibits EGFR negative A375SM melanoma xenograph growth | effect on tumor growth (in words) ([2]; listed as geftinib): effective against EGFR-negative tumors in mice

BTC: betacellulin, binds EGFR and ErbB4
ligand-induced EGFR phosphorylation / activation (EGFR): promoted EGFR activation in tumor EC

EGF: epidermal growth factor, ligand that binds only to EGFR
EGF-induced ErbB2 phosphorylation (p-ErbB2) (ErbB2; A375SM tumor EC): increased ErbB2 phosphorylation (p-ErbB2) in tumor EC | ErbB2 activation in response to EGF (ErbB2; MDA-MB-231 breast carcinoma EC): ErbB2 was also activated | ErbB2 activation in response to EGF (ErbB2; liposarcoma EC): ErbB2 was also activated | phospho-Erk1/2 levels in the presence of EGF (Erk1/2; A375SM tumor EC): increase in phospho-Erk1/2 levels | MAPK activation by EGF (Erk1/2; MDA-MB-231 breast carcinoma EC): subsequent MAPK activation | MAPK activation by EGF (Erk1/2; liposarcoma EC): subsequent MAPK activation | increase in cell proliferation ([1]; tumor EC, 20 ng/ml of EGF, MTT): 2.5 fold | effect on cell proliferation (in words) ([1]; tumor EC, increasing EGF, MTT): dose-dependent increase in cell proliferation | effect on cell proliferation (in words) (skin EC): did not respond to EGF

HB-EGF: Heparin binding-EGF like growth factor, binds EGFR and ErbB4
ligand-induced EGFR phosphorylation / activation (EGFR): promoted EGFR activation in tumor EC

NRG1β extra-cellular domain (R&D Systems) (ligand)
growth inhibition (MTT assay) of skin EC at 5 ng/ml (0.2 nM) NRG1β [3]: 25%

TGFα: transforming growth factor-alpha, EGFR ligand
ligand-induced EGFR phosphorylation / activation (EGFR): promoted EGFR activation in tumor EC
